Data on 25 compounds can be found in patent US5082845A, “Therapeutic xanthine derivatives for the treatment of peptic ulcer disease” (Hoechst Japan Limited, priority 1988, dated 1992).

Series [1] concerns stress-induced gastric ulcer in rats. Put plainly: Protective effect on gastric ulcer induced by restraint plus water-immersion stress in rats. Particulars: 10 mg/kg po; for Ulcer index: mean ± S.E.; for inhibition in vivo at 10 mg/kg: Rattus norvegicus, stress-induced ulcer. It counts as in vivo, male Sprague-Dawley rats. As for the experimental part:
1.1 Protective Effect on Gastric Ulcer Induced by Restraint Plus Water-Immersion Stress in Rats
Male Sprague-Dawley rats weighing 250-300 g were used in groups of 5-34. The animals were given the compounds by the oral route after fasting overnight. Immediately, under light ether anesthesia they were placed in a restraint box and immersed in water at 20° C. for 6 or 7 hours. Then the animals were sacrificed, and their stomachs were isolated, inflated with 4 ml of 1% formalin for 10 minutes, opened along the greater curvature, and examined for the presence of gastric erosions. The longest axis of each erosion induced on the glandular section of the stomach was measured, and the sum of the lengths was defined as an ulcer index.

A further series is described as follows: in vivo. Particulars: mouse, in vivo, mice. As for the experimental part: (§1) LD50 values of the compounds of this invention were determined after intravenous injection or intraperitoneal administration to mice for acute toxicity test. The studies were carried out using male and female NMRI mice (n=3/group) having a body weight between 19-21 g.
Series [2] concerns ethanol-induced gastric ulcer in rats. The series can be described thus: Protective effect on ethanol-induced gastric ulcer in rats. It counts as in vivo, male Sprague-Dawley rats. Particulars: 10 mg/kg po; for Ulcer index: mean ± S.E.; for inhibition in vivo at 10 mg/kg: Rattus norvegicus. The protocol: 1.2 Protective Effect on Ethanol-Induced Gastric Ulcer in Rats
Male Sprague-Dawley rats weighing 250-300 g were used in groups of 5-24. After fasting overnight, the animals were given orally the compounds. Thirty minutes later they received absolute ethanol (1 ml/body) orally and were sacrificed after 60 minutes. The stomach was removed and examined for erosions. The ulcer index was obtained in the same way as under 1.1.

In the next series the test system is mice. Put plainly: in vivo. The note with it: acute. As for the experimental part: as §1
A further series deals with peptic ulcer disease. The note with it: Ter. Arkh. 57, 52-55, 1985; cited from earlier work.
The mark [3] stands for this setting: series with control (distilled water) 19.7 ± 2.9 mm.
The mark [4] stands for this setting: series with control 19.7 ± 2.9 mm.
Setting [5] is: series with control (distilled water) 26.2 ± 1.6 mm.
Setting [6] is: series with control 26.2 ± 1.6 mm.
The mark [7] stands for this setting: ip, intraperitoneal administration, 7 days (footnote b).
The mark [8] stands for this setting: series with control (distilled water) 111.6 ± 10.4 mm.
Where [9] appears, read: series with control 111.6 ± 10.4 mm.
Where [10] appears, read: series with control (distilled water) 164.7 ± 19.4 mm.
The mark [11] stands for this setting: series with control 164.7 ± 19.4 mm.
[12] abbreviates: series with control (10% EtOH) 118.8 ± 9.6 mm.

Molecules are shown by their SMILES. Bounds are passed on as bounds.

The term inhibition in vivo denotes the change of the read-out against control, counted positive when it falls. A word on the LD50: it is the dose at which mortality reaches 50%. Read a low LD50 as a more toxic substance. Turning to `CCCn1c(=O)c2c(ncn2CCCCC(C)O)n(C)c1=O` (stereo not shown) [Compound 15], the Ulcer index in series [1] (setting [3]) is recorded as 2.2 ± 0.9 mm. Also, the inhibition in vivo at 10 mg/kg in series [1] (setting [4]) is 88.9%. In the series “in vivo” (intravenous, method of LitchfieldWilcoxon using 10 mice/dose (footnote a)), this compound yielded an LD50 at 168 h of 123 mg/kg.
With `CCCn1cnc2c1c(=O)n(CCCCC(O)CO)c(=O)n2CC` (stereo not shown) [Compound 14], in series [1] (setting [5]), the Ulcer index worked out at 10.4 ± 1.9 mm. The inhibition in vivo at 10 mg/kg in series [1] (setting [6]) is 60.2%. The LD50 at 168 h in the series “in vivo” (setting [7]) is 300 to 600 mg/kg.
`CCCCCn1c(=O)c2c(ncn2CCCCC(O)CO)n(CC)c1=O` (stereo not shown) [Compound 4]: the values for the Ulcer index in series [2] (setting [8]) and in series [1] (setting [5]) were 15.6 ± 5.8 mm and 9.2 ± 1.9 mm, respectively. Further, the inhibition in vivo at 10 mg/kg in series [2] (setting [9]) came out at 86%; in series [1] (setting [6]), 64.7%. In addition, the LD50 at 168 h in the series “in vivo” (intravenous, n=3/group, 7 days) is > 200 mg/kg.
For `CCCCn1c(=O)c2c(ncn2CCCCC(O)CO)n(CC)c1=O` (stereo not shown) [Compound 3], the Ulcer index in series [2] (setting [10]) was found to be 5.3 ± 3.3 mm; in series [1] (setting [3]), 6.0 ± 1.9 mm. In addition, the inhibition in vivo at 10 mg/kg is 96.8% in series [2] (setting [11]) and 69.6% in series [1] (setting [4]).
`CC(=O)Cn1c(=O)c2c(ncn2CCCCC(C)O)n(C)c1=O` (stereo not shown) [Compound 19, 7-(5-Hydroxyhexyl)-3-methyl-1-(2-oxopropyl)-xanthine]: the Ulcer index in series [1] (setting [5]) stood at 15.0 ± 2.4 mm. The inhibition in vivo at 10 mg/kg in series [1] (setting [6]) stood at 42.8%. For the same compound, the LD50 at 168 h in “in vivo” (intravenous, n=3/group, 7 days) was > 200 mg/kg.
As to `CCCn1c(=O)c2c(ncn2CCCCCC(O)CO)n(CC)c1=O` (stereo not shown) [Compound 13], the figures for the Ulcer index in series [2] (setting [8]) and in series [1] (setting [5]) were 5.0 ± 2.2 mm and 8.9 ± 2.1 mm, respectively. Moreover, the figures for the inhibition in vivo at 10 mg/kg in series [2] (setting [9]) and in series [1] (setting [6]) were 95.5% and 66%, respectively. The same compound displayed an LD50 at 168 h in “in vivo” (intravenous, n=3/group, 7 days) of 200 to 400 mg/kg.
As to `CCn1c(=O)n(CC(C)O)c(=O)c2c1ncn2CCCCC(O)CO` (stereo not shown) [Compound 8, 3-Ethyl-7-(5,6-dihydroxyhexyl)-1-(2-hydroxypropyl)-xanthine], the Ulcer index in series [1] (setting [5]) came out at 20.7 ± 4.6 mm. Besides, the inhibition in vivo at 10 mg/kg in series [1] (setting [6]) was found to be 21%. The LD50 at 168 h in the series “in vivo” (intravenous, n=3/group, 7 days) was > 200 mg/kg.
The matching figures for `CCCn1c(=O)n(CCCCC(C)=O)c(=O)c2c1ncn2CCCCC(O)CO` (stereo not shown) [Compound 9, 7-(5,6-Dihydroxyhexyl)-1-(5-oxohexyl)-3-n-propylxanthine]: 20.2 ± 5.8 mm, 22.9% and > 200 mg/kg.
`CCn1c(=O)c2c(ncn2CCCCC(C)=O)n(C)c1=O` [Compound 22]: the Ulcer index in series [1] (setting [3]) was determined as 8.0 ± 4.2 mm. For the same compound, in series [1] (setting [4]), the inhibition in vivo at 10 mg/kg stood at 59%. In addition, the LD50 at 168 h in “in vivo” (setting [7]) lay within 200 to 400 mg/kg.
Regarding `CCn1c(=O)n(CC(C)=O)c(=O)c2c1ncn2CCCCC(O)CO` (stereo not shown) [Compound 7, 3-Ethyl-7-(5,6-dihydroxyhexyl)-1-(2-oxopropyl)-xanthine], the Ulcer index in series [1] (setting [5]) was determined as 20.4 ± 4.1 mm. In addition, the inhibition in vivo at 10 mg/kg in series [1] (setting [6]) is 21.9%. Besides, the LD50 at 168 h in the series “in vivo” (intravenous, n=3/group, 7 days) is > 200 mg/kg.
In the case of `C=CCn1cnc2c1c(=O)n(CCCCC(C)O)c(=O)n2C` (stereo not shown) [Compound 21, 7-allyl-1-(5-hydroxyhexyl)-3-methylxanthine], the Ulcer index in series [1] (setting [5]) came to 13.4 ± 3.2 mm. Further, in series [1] (setting [6]), the inhibition in vivo at 10 mg/kg was 48.9%. Further, the LD50 at 168 h in the series “in vivo” (intravenous, n=3/group, 7 days) fell in the range of 100 to 200 mg/kg.
Take `CCn1c(=O)n(C(C)C)c(=O)c2c1ncn2CCCCC(O)CO` (stereo not shown) [Compound 2]: the Ulcer index in series [2] (setting [8]) is given as 6.7 ± 2.8 mm; in series [1] (setting [5]), 11.5 ± 2.1 mm. In addition, the inhibition in vivo at 10 mg/kg in series [2] (setting [9]) is 94%; in series [1] (setting [6]), 56%.
Take `CC(=O)CCCCn1c(=O)c2c(ncn2CC(C)O)n(C)c1=O` (stereo not shown) [Compound 20]: in series [1] (setting [3]), the Ulcer index is recorded as 6.9 ± 2.1 mm. In addition, the inhibition in vivo at 10 mg/kg in series [1] (setting [4]) worked out at 65%. In “in vivo” (intravenous, n=3/group, 7 days), the LD50 at 168 h was > 200 mg/kg.
Take `C=CCn1c(=O)c2c(ncn2CCCCC(O)CO)n(CC)c1=O` (stereo not shown) [Compound 6, 1-Allyl-3-ethyl-7-(5,6-dihydroxyhexyl)-xanthine]: the values for the Ulcer index in series [2] (setting [8]) and in series [1] (setting [5]) were 10.7 ± 1.4 mm and 7.0 ± 0.9 mm, respectively. The inhibition in vivo at 10 mg/kg in series [2] (setting [9]) amounted to 90.4%; in series [1] (setting [6]) it was 73.2%. In addition, the LD50 at 168 h in the series “in vivo” (intravenous, n=3/group, 7 days) was > 200 mg/kg.
The matching figures for `CCCCn1c(=O)c2c(ncn2CCCCC(C)O)n(C)c1=O` (stereo not shown) [Compound 16]: 4.1 ± 0.8 mm, 10.6 ± 0.9 mm, 96.3%, 59.4% and 100 to 200 mg/kg.
As to `CCn1c(=O)n(CC(C)C)c(=O)c2c1ncn2CCCCC(O)CO` (stereo not shown) [Compound 5], the Ulcer index in series [1] (setting [5]) is reported as 7.1 ± 1.8 mm. Moreover, in series [1] (setting [6]), the inhibition in vivo at 10 mg/kg is 72.9%. In the series “in vivo” (intravenous, n=3/group, 7 days), the LD50 at 168 h is > 200 mg/kg.
Take `CC(=O)CCCCn1c(=O)c2c(ncn2CCCCC(O)CO)n(C)c1=O` (stereo not shown) [Compound 11, 7-(5,6-dihydroxyhexyl)-3-methyl-1-(5-oxohexyl)-xanthine]: the Ulcer index in series [1] (setting [5]) turned out to be 13.8 ± 1.7 mm. Besides, the inhibition in vivo at 10 mg/kg in series [1] (setting [6]) worked out at 47.4%. Also, the LD50 at 168 h in “in vivo” (intravenous, n=3/group, 7 days) was > 200 mg/kg.
`C=CCn1c(=O)c2c(ncn2CCCCC(C)O)n(C)c1=O` (stereo not shown) [Compound 18, 1-Allyl-7-(5-hydroxyhexyl)-3-methylxanthine]: in series [1] (setting [3]), the Ulcer index is recorded as 15.3 ± 2.1 mm. Further, the inhibition in vivo at 10 mg/kg in series [1] (setting [4]) is 22.3%. In the series “in vivo” (setting [7]), the LD50 at 168 h lay in the range of 250 to 500 mg/kg.
`CCCn1c(=O)c2c(ncn2CCCCC(O)CO)n(CC)c1=O` (stereo not shown) [Compound 1]: the figures for the Ulcer index in series [2] (setting [10]) and in series [1] (setting [3]) were 6.7 ± 2.1 mm and 2.7 ± 0.9 mm, respectively. For the same compound, the inhibition in vivo at 10 mg/kg was 95.8% in series [2] (setting [11]) and 86.3% in series [1] (setting [4]). Besides, the “toxicity (in words)” value in the series on mice is “low toxicity”.
For the compound `CC(=O)Cn1cnc2c1c(=O)n(CCCCC(C)O)c(=O)n2C` (stereo not shown) [Compound 23, 1-(5-Hydroxyhexyl)-3-methyl-7-(2-oxopropyl)-xanthine], the Ulcer index in series [1] (setting [3]) was determined as 15.8 ± 4.6 mm. Moreover, the inhibition in vivo at 10 mg/kg in series [1] (setting [4]) worked out at 19.8%. In the series “in vivo” (intravenous, n=3/group, 7 days), the LD50 at 168 h is > 200 mg/kg.
Regarding `CCCCCCn1c(=O)c2c(ncn2CCCCC(C)O)n(C)c1=O` (stereo not shown) [Compound 17], in series [2] (setting [12]), the Ulcer index came out at 13.4 ± 5.2 mm and at 10 mg/kg the inhibition in vivo was 88.7%. Also, in the series “in vivo” (setting [7]), the LD50 at 168 h is 500 to 1000 mg/kg.
As to `CC(=O)CCCCn1cnc2c1c(=O)n(CC(C)=O)c(=O)n2C` [Compound 24, 3-Methyl-7-(5-oxohexyl)-1-(2-oxopropyl)-xanthine], in series [1] (setting [3]), the Ulcer index turned out to be 10.3 ± 3.5 mm. In addition, the inhibition in vivo at 10 mg/kg in series [1] (setting [4]) is 47.7%. For the same compound, the LD50 at 168 h in the series “in vivo” (intravenous, n=3/group, 7 days) was > 200 mg/kg.
On to `CCCn1c(=O)c2c(ncn2CCCC(O)C(C)O)n(CC)c1=O` (stereo not shown) [Compound 12], for which, in series [1] (setting [5]), the Ulcer index was 4.3 ± 0.8 mm. Further, in series [1] (setting [6]), the inhibition in vivo at 10 mg/kg was 83.5%. The LD50 at 168 h in the series “in vivo” (intravenous, n=3/group, 7 days) was > 200 mg/kg.
On to `CCCCn1c(=O)c2c(ncn2CCCCC(O)CO)n(C)c1=O` (stereo not shown) [Compound 10], for which the Ulcer index turned out to be 1.1 ± 0.5 mm in series [2] (setting [8]) and 4.5 ± 1.4 mm in series [1] (setting [5]). Moreover, the inhibition in vivo at 10 mg/kg came out at 99% in series [2] (setting [9]) and 82.8% in series [1] (setting [6]).
For `CC(=O)CCCCn1c(=O)c2c(ncn2C)n(C)c1=O` [Compound 25, 1,2,3,6-tetrahydro-3,7-dimethyl-1-(5-oxohexyl)-purine-2,6-dione, reference compound], the inhibition in vivo at 10 mg/kg is 78.8% in series [2] (setting [11]) and 12.7% in series [1] (setting [4]). The “antiulcer effects (in words)” value in the series with peptic ulcer disease was “antiulcer effects”.
